# Measured values from US8350097B2, “Therapeutic compounds” (priority 2007, dated 2013).
# Like-named read-outs stand apart in the source and are kept apart here.
# Columns and labels:
# Beagle dogs [1] = assay: Hemodynamic effects (blood pressure) in beagle dogs, bolus IV; format: in vivo, dog; settings: 4 min after bolus IV
# Description: The study was a crossover design. […] The MTD was defined as the dose that reduced mean arterial blood pressure (MAP) by 50% or to less than 50 millimeters of mercury (mmHg or mm Hg). All animals received supplemental oxygen and, if needed, ventilatory support after 4 min of apnea.
# Hemodynamic data, such as mean arterial pressure (MAP), were recorded at baseline, 1, 2, 4, 8, 15, 20 and 30 min. Compound 1 was administered at 5, 10, 15 and 30 mg/kg to 6, 4, 3 and 3 dogs respectively. […] Data were analyzed with a 2-way ANOVA followed by t-test with Bonferroni correction for multiple comparisons.
# [2] = Aqueous phase concentration in lipid emulsion (pain on injection surrogate), ultrafiltration + LC/MS/MS; format: physicochemical; settings: for reduction in aqueous phase concentration compared to propofol in identical formulations: 1% lipid emulsions formulated per Example 5
# Description: The concentration of Compound 1 in the aqueous phase (aqueous phase concentration) of a lipid emulsion formulation was determined.
# A one percent (1%) Compound 1 formulation was formulated in accordance with Example 5, Compound 1 being prepared as described in Example 2.
# Male descented ferrets = assay: Pro-emetic activity in ferrets; settings: 6 ferrets, IV infusion 15 min at 1 mg/kg/min, 45 min observation
# Description: Male descented ferrets weighing 1.0-1.5 kg with vascular access ports in the jugular vein were housed on a 12/12-hour light/dark cycle under controlled temperature, with food and water provided ad libitum. On each study day, food was presented to ferrets one hour prior to dosing. Immediately prior to dosing, food and water were removed. A 1% Compound 1 formulation, prepared as described in Example 2 and formulated in accordance with Example 5, or […] was administered by IV infusion to the ferrets; see Wynn R L et al, 1993, Eur J Pharmacol 241, 42 re […] administration in ferrets. After administration of Compound 1 or […], animals were placed in clean, transparent cages (with lids) and left unrestrained for a 45-min observation period by an observer blinded to the specific treatment administered.
# Episodes of retching and/or vomiting were considered separate episodes when the interval between retches and/or vomits exceeded 5 sec.
# [3] = Anesthetic effects in rats, bolus IV (LORR model of general anesthesia); format: in vivo, rat; settings: male, Sprague-Dawley, rat, in vivo, read-out: MTD (maximum tolerated dose)
# Description: (§1) Also measured was minimum dose to achieve LORR and maximum tolerated dose (MTD).
# (§2) The ranges of doses studied were 2, 3, 4, 7, 14 and 21 mg/kg for Compound 1 and 3.5, 4.0, 7.0 and 14.0 mg/kg for […].
# male Sprague-Dawley rats = assay: as above; format: in vivo, rat
# Description: as §1, §2
# Beagle dogs [4] = settings: dog, in vivo
# [5] = Pharmacokinetic study, IV infusion in domestic pigs; format: in vivo
# Description: A 0.5% Compound 1 formulation, prepared as described in Example 2 and formulated in accordance with Example 6, was administered to 6 pigs via a 20-min intravenous (IV) infusion at 0.6 mg/kg/min (12 mg/kg total dose).
# [6] = system: commercial farm-bred swine; assay: Hemodynamic effects, blood gas and serum chemistry in anesthetized ventilated pigs, IV infusion; format: in vivo, pig; settings: IV infusion 0.6 mg/kg/min
# Description: Anesthesia was induced with isoflurane. Intravascular access was obtained from an ear vein. Each pig was intubated and mechanically ventilated.
# ECG was monitored throughout the study. […] Body temperature was maintained at 37° C.
# Arterial blood gas samples from pigs infused with Compound 1 were taken and analyzed for blood gas and serum chemistry values.
compound,measurement,setting,value
"CC[C@@H](C)c1cccc(C(C)C)c1O [Compound 1, (R)-(−)-2-sec-butyl-6-isopropylphenol]",MAP % change from baseline,Beagle dogs [1]; 10 mg/kg,5%
same,MAP % change from baseline,Beagle dogs [1]; 15 mg/kg,−19%
same,MAP % change from baseline,Beagle dogs [1]; 30 mg/kg,−41%
same,reduction in aqueous phase concentration compared to propofol in DIPRIVAN,[2]; 1% Compound 1 formulation vs DIPRIVAN,57%
same,reduction in aqueous phase concentration compared to propofol in identical formulations,[2],72%
same,reduction in aqueous phase concentration compared to propofol in identical formulations,[2]; listed as (R)-(−)-2-sec-butyl-6-isopropylphenol,more than 70%
same,aqueous phase concentration,[2]; aqueous phase of 1% lipid emulsion separated by ultrafiltration,1.78 ± 0.17 µg/mL
same,"episodes of vomiting or retching, drug administered alone",Male descented ferrets,did not produce any episodes of vomiting or retching
same,MTD,[3],14 mg/kg
same,HD50 (dose required to cause 50% of the rats to lose righting reflex),male Sprague-Dawley rats,2.3 mg/kg
same,HD7 min (dose required to produce 7 minutes of anesthesia),male Sprague-Dawley rats,3.4 mg/kg
same,TI (therapeutic index; ratio of MTD to HD7 min),male Sprague-Dawley rats,4.1
same,production of LORR by dose,male Sprague-Dawley rats; 6 rats per dose group,LORR at all doses of at least 3 mg/kg
same,deaths,"male Sprague-Dawley rats; 6 rats per dose group, dose as stated",Three rats died when administered 21 mg/kg
same,anesthetic depth by Cumulative sedation scores,Beagle dogs [4],approximately equipotent anesthetic depth
same,duration of anesthesia (sleep time) compared with propofol,Beagle dogs [4]; iv,similar
same,effect on BIS compared with propofol,Beagle dogs [4]; iv,greater effect on BIS at doses of at least 15 mg/kg
same,duration of anesthesia (sleep time),"Beagle dogs [4]; iv, 5 mg/kg",23 min
same,duration of anesthesia (sleep time),"Beagle dogs [4]; iv, 10 mg/kg",33 min
same,duration of anesthesia (sleep time),"Beagle dogs [4]; iv, 15 mg/kg",40 min
same,duration of anesthesia (sleep time),"Beagle dogs [4]; iv, 30 mg/kg",71 min
same,metabolic pathway,[5],glucuronidation in the 1-position with the 4-position being subject to hydroxylation followed by glucuronide and sulfate conjugation
same,Clearance,[5]; IV infusion,exceeded estimated hepatic blood flow
same,metabolic alterations (arterial blood gas and serum chemistry),[6],did not produce any significant metabolic alterations
